# Reference: patent US9540418B2, “Polypeptide specifically binding to rare earth nanoparticles and use thereof” (University of Science and Technology of China, priority 2012, dated 2017)
# Ends that are not written are not given here.
# Key:
# [1] = Competitive inhibition of REOB-1 phage binding to Nd2O3 by polypeptides (IC50); conditions: 100 μg Nd2O3, REOB-1 phages at a titer of 108, 2 hr incubation; read-out: IC50 (μM)* of polypeptides competitively inhibiting the binding of REOB-1 phages to Nd2O3 nanoparticles
# Experimental: 100 μg Nd2O3 was mixed with the polypeptides, RE-1, AP-1, RE-2, RE-3, RE-4, RE-5, RE-6, RE-7, RE-8, RE-9, RE-10, etc., respectively. To the mixture, REOB-1 phages at a titer of 108 were added. After 2 hr of incubation, the number of REOB-1 phages binding to Nd2O3 was measured. IC50 value indicated the relative activity of various polypeptides competitively inhibiting the binding of REOB-1 phages to Nd2O3 nanoparticles. The polypeptide RE-1 and its analogues had different binding ability to Nd2O3.
# HeLa-LC3 cells [2] = assay: RE-1 analogues blocking nanophosphor-induced autophagy (LC3 aggregates and vacuoles); type: cell-based; conditions: 24 hr; for inhibition of GFP-LC3 dot-like aggregation and cytoplasm vacuolation induced by UCN: 100 μg/mL UCN coated or mixed; for rank of ability after coating UCN to inhibit cell autophagy induced by UCN: 100 μg/mL
# Experimental: UCN and UCP coated with RE-1 analogues RE-2, RE-3, or RE-5 were prepared as follows: 50 μg or 10 μg RE-1 analogues RE-2, RE-3, or RE-5 was mixed with 100 μg UCN or UCP, respectively, incubated at 37° C. for 2 hr, centrifuged at 12000 rpm, and then washed with water 3 times to remove the excess and unbound peptides. The resultant precipitate was resuspended in 100 μL water.
# HeLa-LC3 cells were inoculated into a 96-well cell culture plate at a density of about 1-2×10^4 cells/well, and cultured overnight for further use. At first, the medium was replaced with fresh DMEM medium, and then 100 μg/mL UCN, UCN+RE-1, UCN+RE-2, UCN+RE-3, or UCN+RE-5 was added. An equal volume of PBS was used as blank. A mixture of 100 μg/mL UCN and 10 mg/mL PEG was used as negative control. A mixture of 100 mM trehalose and 50 μg RE-1 was used as positive control. After culturing for 24 hr, a fluorescence microscope was used to observe, image, and count.
# HeLa-LC3 cells were inoculated into a 96-well cell culture plate at a density of about 1-2×10^4 cells/well, and cultured overnight for further use. At first, the medium was replaced with fresh DMEM medium, and then 100 μg/mL UCP, UCP+RE-1, UCP+RE-2, UCP+RE-3, or UCP+RE-5 was added. An equal volume of PBS was used as blank. After culturing for 24 hr, a fluorescence microscope was used to observe, image, and count.
# The ability to induce cell autophagy was estimated by determining the numbers of LC3 aggregates and vacuoles.
# HeLa cells [3] = assay: Effect of RE-1 analogues on cytotoxicity induced by UCN, UCP (MTT, PI staining); type: cell-based; conditions: 1 mg/mL, 24 hr
# Experimental: (§1) MTT cell vitality assay is performed as follows: The cells to which samples have been added are cultured for 24 hr, and then 0.5 mg/mL MTT solution is added and cultured for 4 hr. The MTT solution in the well is discharged, and then 200 μL DMSO is added, followed by gently shaking the plate on a shaking table for 10 min. Detection is performed using microplate reader (ELX800, purchased from BIO-TEK) at a wavelength of 570 nm.
# (§2) PI staining assay is performed as follows: The cells to which samples have been added are cultured for 24 hr, and then to the culture Hoechst 33342 (10 mM, purchased from Sigma, USA, Catalog #: B2261) and PI (Propidium Iodide) (10 mM, purchased from Beyotime Biotechnology, Catalog #: ST511) are added for 10 min of staining. Then, the cells are detected and photographed under a fluorescence microscope (Olympus IX71, purchased from Olympus). The number of the cells counted by this assay was 500.
# HeLa cells were inoculated into 96-well cell culturing plate at a density of about 1-2×10^4 cells/well, and cultured overnight for further use. At first, the medium was replaced with fresh DMEM medium, and then 1 mg/mL UCN, UCP, UCN+PEG (containing 10 mg PEG), UCN+RE-1, UCP, UCP+RE-1, UCN+RE-2, UCN+RE-3, UCN+RE-5, UCP+RE-2, UCP+RE-3, or UCP+RE-5 were added, respectively. After culturing for 24 hr, MTT cell viability assay and PI staining were performed to detect the mortality of the cells.
# mice liver [4] = assay: Autophagosome formation in mice livers by transmission electron microscope; type: in vivo, Balb/c mice; conditions: RE-1 with UCN, PEG with UCN, AP-1 with UCP
# Experimental: (§3) Balb/c mice (purchased from SLAC Laboratory Animal (Shanghai, China), 6 weeks old, and weighed 20 g when used) were bred in a sterile housing, and then 300 μg (dosage: 15 mg/kg) UCN, UCN+PEG (containing 10 mg PEG), UCN+RE-1, UCP, UCP+RE-1, or UCP+AP-1 was injected through tail vein. An equal volume of normal saline was injected as a control. After 24 hr, the livers of the mice were removed and subjected to western blotting assay.
# The mice livers obtained as described in Example 21 were in situ fixed with 2.5% glutaral-dimethyl arsine buffer (pH 7.4) at 4° C. for 1 hr, then fixed with 2% osmium tetroxide at room temperature for 1 hr, and then dehydrated with ethanol gradients. Then, the cell samples were embedded into epoxy resin (EPON812). The embedded cell samples were cut into ultrathin slices, which were stained with uranyl acetate and lead citrate, and observed and imaged under a transmission electron microscope (JEOL-1230, JEOL, Japan).
# [5] = system: LC3 type II in mice liver; assay: Western blotting of LC3 in mice livers after tail vein injection; type: in vivo; conditions: UCP+AP-1, tail vein, 24 hr
# Experimental: (§4) Western blotting is performed as follows: After an incubation of 24 h, the cells are collected and lysed with lysis buffer (purchased from Beyotime Biotechnology, China). The lysate is boiled in boiling water for 10 min, subjected to 15% SDS-PAGE, and then transferred to nylon membrane (purchased from Amersham Inc.) by a wet transfer. In the Western blotting, Anti-LC3 (Light Chain 3 Protein Antibody, purchased from Novus Inc., Catalog #: NB 100-2220) is used as primary antibody; GAPDH (purchased from Millipore Inc.) is used as internal reference; and Horseradish peroxidase (HRP) conjugated goat anti-rabbit IgG (H+L) (Goat Anti-Rabbit IgG (H+L), HRP Conjugate) (purchased from Promega Inc.) is used as secondary antibody.
# as §3
# mice liver [6] = assay: Liver damage in mice livers (HE staining); type: in vivo, Balb/c mice; conditions: UCP+RE-1 or UCP+AP-1, tail vein, 24 hr
# Experimental: as §3
# The mice livers obtained as described in Example 21 were in situ fixed with 2.5% glutaral-dimethyl arsine buffer (pH 7.4) at 4° C. for 1 hr, then fixed with 2% osmium tetroxide at room temperature for 1 hr, and then dehydrated with ethanol gradients. Then, the cell samples were embedded in paraffin. The embedded cell samples were cut into ultrathin slices, which were stained with HE (hematoxylin-eosin), and observed and imaged under fluorescence microscope.
# LC3 II in HeLa cells [7] = assay: Western blotting of LC3 in HeLa cells; type: cell-based; conditions: 100 μg/mL UCP+AP-1
# Experimental: as §4
# HeLa cells were inoculated into a 24-well cell culturing plate at a density of about 3-5×10^4 cells/well, and cultured overnight for further use. At first, the medium was replaced with fresh DMEM medium, and then 100 μg/mL UCN or UCN+RE-1 was added. An equal volume of PBS was used as blank. A mixture of 100 μg/mL UCN and 10 mg/mL PEG was used as negative control. 100 mM trehalose was used as positive control. Then, western blotting assay was performed.
# HeLa cells were inoculated into a 24-well cell culturing plate at a density of about 3-5×10^4 cells/well, and cultured overnight for further use. At first, the medium was replaced with fresh DMEM medium, and then 100 μg/mL UCP or UCP+RE-1 was added. An equal volume of PBS was used as blank. A mixture of 100 μg/mL UCP+AP-1 and a mixture of 400 μg/mL TiO2+AP-1 were used as negative control. 400 μg/mL TiO2 was used as positive control. Then, western blotting assay was performed.
# HeLa cells [8] = assay: Adherence of UCN coated with RE-1 or RE-1-RGD to HeLa cells; type: cell-based; conditions: 37° C., 2 hr, versus uncoated
# Experimental: HeLa cells were cultured on a coverslip (22 mm×22 mm), which was then placed into a 6-well plate with the cells facing upward or downward, and the coverslip was supported by a sterilized glass cube (2 mm×2 mm×2 mm). Then, 4 mL of DMEM medium containing the rare-earth upconversion nanophosphors coated with RE-1 or RE-1-RGD or without any coating was slowly poured into the 6-well plate, such that the cells were fully immersed in the medium, and the coverslip was just located at the middle of the height of the liquid. The cells were placed into a cell incubator at 37° C. for 2 hr, and then washed with PBS 3 times. The UCNs adhered to the surfaces of the cells were observed under a fluorescence microscope (Olympus IX71, Olympus, Japan) equipped with a 980-nm infrared laser (MDL-980 nm 1 W, Changchun New Industries Optoelectronics Tech. Co., Ltd, China).
# HeLa-LC3 cells [9] = assay: RE-1-RGD effect on UCN-induced autophagy (LC3 dot-like aggregates and vacuoles); type: cell-based; conditions: 100 μg/mL RE-1-RGD-coated UCN, 24 hr
# Experimental: UCN coated with RE-1-RGD was prepared as follows: 50 μg RE-1-RGD and 100 μg UCN were mixed, incubated at 37° C. for 2 hr, and then centrifuged at 12000 rpm. The resultant precipitate was washed with water for 3 times to remove the excess and unbound RE-1-RGD peptides. Then, the precipitate was resuspended in 100 μL water for further use.
# HeLa-LC3 cells were inoculated into a 96-well cell culture plate at a density of about 1-2×10^4 cells/well, and cultured overnight for further use. At first, the medium was replaced with fresh DMEM medium, and then 100 μg/mL UCN, UCN+RE-1, and UCN+RE-1-RGD were added, respectively. An equal volume of PBS was used as blank. After culturing for 24 hr, LC3 dot-like aggregates and vacuoles in the cells were observed and imaged under a fluorescence microscope.
# LC3 II in HeLa cells [10] = assay: RE-1-RGD effect on UCN-induced autophagy (western blotting LC3 II); type: cell-based; conditions: 100 μg/mL RE-1-RGD-coated UCN
# Experimental: as §4
# HeLa cells were inoculated into 24-well cell culture plate at a density of about 3-5×10^4 cells/well, and cultured overnight for further use. At first, the medium was replaced with fresh DMEM medium, and then 100 μg/mL UCN, UCN+PEG (containing 10 mg PEG), UCN+RE-1, and UCN+RE-1-RGD were added, respectively. An equal volume of PBS was used as blank. 100 mM trehalose was used as positive control. Then, western blotting assay was performed.
# HeLa cells [11] = assay: RE-1-RGD effect on cytotoxicity induced by UCN (MTT, PI staining); type: cell-based; conditions: 1 mg/mL RE-1-RGD-coated UCN, 24 hr, MTT and PI staining
# Experimental: as §1, §2
# HeLa cells were inoculated into 96-well cell culturing plate at a density of about 1-2×10^4 cells/well, and cultured overnight for further use. At first, the medium was replaced with fresh DMEM medium, and then 1 mg/mL UCN, UCN+RE-1, and UCN+RE-1-RGD were added, respectively. After culturing for 24 hr, MTT cell viability assay and PI staining were performed to detect the mortality of the cells.
substance,measurement,setting,value
"AATARSPWICG [RE-4, RE-1 2C→A]",IC50,[1],270 ± 8.67 µM
"ACAARSPWICG [RE-5, RE-1 3T→A]",inhibition of GFP-LC3 dot-like aggregation and cytoplasm vacuolation induced by UCN,HeLa-LC3 cells [2],did not inhibit
same,rank of ability after coating UCN to inhibit cell autophagy induced by UCN,HeLa-LC3 cells [2],RE-1>RE-3>RE-5
same,inhibitory effect of coating on cytotoxicity induced by UCN and UCP,HeLa cells [3],RE-1>RE-3>RE-5
same,IC50,[1],689 ± 8.38 µM
"ACNATLPHQCG [AP-1, same terminal amino acids but irrelevant amino acids therebetween, reference compound]","inhibition of autophagosome formation induced by nanophosphors (UCN, UCP) in liver",mice liver [4],did not
same,inhibition of ability of UCP to induce autophagy in liver,[5],could not inhibit
same,IC50,[1],> 5000 µM
same,effect of coating on liver damage induced by UCP,mice liver [6],showed no such effect
same,inhibition of ability of nanophosphor to induce cell autophagy by AP-1,LC3 II in HeLa cells [7],not for AP-1
"ACTAASPWICG [RE-6, RE-1 5R→A]",IC50,[1],78.4 ± 7.07 µM
"ACTARAPWICG [RE-7, RE-1 65→A as printed]",IC50,[1],83.9 ± 6.65 µM
"ACTARSAWICG [RE-8, RE-1 7P→A]",IC50,[1],440 ± 8.48 µM
"ACTARSPAICG [RE-9, RE-1 8W→A]",IC50,[1],86.7 ± 8.07 µM
"ACTARSPWACG [RE-10, RE-1 9I→A]",IC50,[1],71.5 ± 5.1 µM
"ACWPATRISCG [RE-3, order of 7 middle amino acids of RE-1 disrupted]",inhibition of GFP-LC3 dot-like aggregation and cytoplasm vacuolation induced by UCN,HeLa-LC3 cells [2],exhibited an inhibitory effect
same,reduction of GFP-LC3 dot-like aggregation induced by UCN,HeLa-LC3 cells [2]; 100 μg/mL UCN coated,21%
same,reduction of cytoplasm vacuolation induced by UCN,HeLa-LC3 cells [2]; 100 μg/mL UCN coated,50%
same,rank of ability after coating UCN to inhibit cell autophagy induced by UCN,HeLa-LC3 cells [2],RE-1>RE-3>RE-5
same,inhibitory effect of coating on cytotoxicity induced by UCN and UCP,HeLa cells [3],RE-1>RE-3>RE-5
same,IC50,[1],64.3 ± 2.33 µM
"CRGDCGGACTARSPWICG [RE-1-RGD, RE-1 and tumor cell-targeting peptide RGD]",number of coated upconversion nanophosphors adhered to the surface of the cells,HeLa cells [8],significantly higher
same,LC3 dot-like aggregates and vacuoles in cells versus UCN group,HeLa-LC3 cells [9],significantly increased
same,LC3 II in the cells,LC3 II in HeLa cells [10],significantly increased
same,cell mortality versus group treated with UCN,HeLa cells [11],significantly higher
"TARSPWI [RE-2, TARSPWI]",inhibition of GFP-LC3 dot-like aggregation and cytoplasm vacuolation induced by UCN,HeLa-LC3 cells [2],did not inhibit
same,rank of ability after coating UCN to inhibit cell autophagy induced by UCN,HeLa-LC3 cells [2],substantially no inhibitory effect
same,inhibitory effect of coating on cytotoxicity induced by UCN and UCP,HeLa cells [3],nearly showed no inhibitory effect
same,IC50,[1],1307 ± 6.5 µM
